Experimental findings from US9689042B2, “Use of glycolytic pathways for inhibiting or measuring oncogenic signaling” (The Regents of the University of California, priority 2012, dated 2017) are described below.

“Also recorded” adds a separate entry of the source.

In experiment [1] the test system is T4-2 cells. Conditions: T4-2 cells, 3D lrECM; for phenotypic reversion of the malignant phenotype: 2DG 4 mM, IA 20 μM, OX 50 mM, Azs 20 μM, DON 20 μM, BADGP 5 mM, TM 10 ng/ml, OGM 4 ng/ml, Rapa 0.01-1.0 μM. The method, then: HMT-3522 cells were cultured on tissue culture plastic (2D) and in 3D lrECM gels with H14 medium, a 1:1 mix of DMEM/F12 (UCSF Cell Culture Facility) supplemented with 250 ng/ml insulin, 10 μg/ml transferrin, 2.6 ng/ml sodium selenite, 0.1 nM β-estradiol, 1.4 μM hydrocortisone and 5 μg/ml prolactin but no serum. S1 cells were additionally supplemented with 10 ng/ml EGF. MDA-MB-231 and HCC70 cells were cultured in DMEM and RPMI1640, respectively, and were supplemented with 10% fetal bovine serum (FBS).
For 3D lrECM cultures, S1 and T4-2 cells were seeded at 840,000 and 600,000 cells per cm3 respectively in lrECM gel (Cultrex), overlaid with H14 medium. MDA-MB-231 and HCC70 cells were seeded at 625,000 cell per cm3 and overlaid with H14 medium supplemented with 1% FBS. Cells were used for each assay after 10 days, unless otherwise indicated.
Pieces of lrECM gel containing cell colonies were suspended in approximately the same volume of phosphate buffered saline (PBS) and directly spread on glass slides. After brief air-drying, colonies were fixed with 3.7% paraformaldehyde (PFA) in PBS at room temperature (RT) for 10 min, washed with PBS containing 0.1 mM glycine, and permeabilized with 1:1 methanol/acetone at −20° C. for 10 min. After blocking with IF buffer (0.2% Triton X-100, 0.1% BSA [radioimmunoassay grade], 0.05% Tween 20, 7.7 mM NaN3 in PBS) containing 10% goat serum and 1% goat F(ab′)2 anti-mouse immunoglobulin G (IgG; Caltag) at RT for 30 min, colonies were stained with anti-α6 integrin antibody (Chemicon International) at 4° C. overnight. Colonies were washed extensively with IF buffer, and stained with Alexa 568-labeled anti-rat IgG antibody at RT for 2 hr. Colonies were washed with IF buffer again, and nuclei were stained with DAPI at RT for 10 min. Slides were briefly washed with PBS and mounted with 50% glycerol in PBS.
To test whether increased glucose metabolism itself is required for oncogenic signaling events, we utilized 3D lrECM cultures of HMT-3522, a breast cancer progression series which includes non-malignant (S1) and malignant (T4-2) human breast epithelial cells from the same individual (Briand et al., 1987; Petersen et al., 1992; Rizki et al., 2008). Using these cells, we have described the involvement and reciprocity of multiple signaling pathways including EGFR, β1 integrin, PI3K-Akt and MEK-ERK in oncogenic events (Beliveau et al., 2010; Bissell et al., 2005). […] We thus used this “phenotypic reversion” of the cancer cells as an assay to examine how the signaling integration plan of the breast acini could involve glucose metabolism.

The test system of experiment [2] is EGFR, β1 integrin, Akt, MEK, GLUT3, glycolytic enzymes in T4-2 cells. The experiment is described as follows: Western blots of signaling intermediates, GLUT3 and metabolic enzymes in 3D lrECM cultures of T4-2 cells. It counts as cell-based, human. Conditions: T4-2 cells, 3D lrECM. The procedure: (§1) Cell colonies were separated from lrECM gels by shaking in PBS containing 5 mM EDTA and the proteinase inhibitor cocktail set I (Calbiochem) on ice for 30 min. Cells were lysed in lysis buffer (1% NP-40, 1% deoxycholate, 2% SDS, 150 mM NaCl, 20 mM Tris-HCl [pH 7.4] plus 5 mM EDTA and protease inhibitor cocktail set I and phosphatase inhibitor cocktail set I [Calbiochem]) and sonicated three times for 30 sec each. Proteins were separated by SDS-PAGE, transferred to nitrocellulose membranes, and probed with antibodies against the following proteins: phosphorylated MEK, MEK, phosphorylated Akt, Akt, phosphorylated AMPK, AMPK, p70S6K, phosphorylated p70S6K, CHOP, EPAC1 (Cell Signaling), β1 integrin, EGFR, activated EGFR, HIF-1α, (Chemicon International), PFKP (Abgent), GAPDH, GLUT3 (GeneTex), LDHA, PDHE1α, DLAT, DLD, HIF-3α, Rap1, sAC, EPAC2, OGT, Lamin A/C (Santa Cruz Biotechnology), Aldolase (Polysciences), GFPT (ProteinTech Group), HIF-2α (Abcam), and HA-tag (Covance). After probing with HRP-conjugated secondary antibodies, blots were developed using SuperSignal West Femto chemiluminescence reagent (Pierce Biotechnology). Images were captured using Fluor Chem 8900 imager (Alpha Innotech).
(A western blot detects proteins with antibodies after separation by electrophoresis.)

For experiment [3], the system named is T4-2 cells. In words: Glucose uptake assay (IRDye800CW-2DG) in 3D lrECM. It is filed as cell-based, human. The method, then: (§2) Cells suspended in 200 μl lrECM were seeded in 12 well glass-bottom plates (14 mm diameter; MatTek Corporation). Gels were overlaid with 500 μl H14 media and cultured for 10 days before each assay unless otherwise described.
For glucose uptake assay, cells were incubated with 1 μM of IRDye800CW-2DG (LI-COR Biosciences) for 1 hour, fixed within gels with 4% paraformaldehyde (PFA) in PBS for 30 min. and stained with DRAQ5 (1:10000 dilution), an infrared dye that binds stoichiometrically to DNA, for 30 min. Cells were extensively washed with PBS, then IRDye800-2DG uptake together with DRAQ5 staining were measured by using Odyssey Infrared Imaging System (LI-COR Biosciences).
(§3) In each assay, one well, containing only lrECM, was made for background measurements. Glucose uptake measured by 2DG uptake, lactate production and MitoTracker staining were normalized using total DNA levels, and presented relative to that of control (either S1 or non-treated T4-2 cells).

Experiment [4] concerns T4-2 cells. The experiment is described as follows: Lactate production assay in 3D lrECM. It counts as cell-based, human. The procedure:
as §2
For lactate production, on day 9, conditioned-media were harvested to measure lactate remaining in the 200 μl of the gel (assuming equilibrium between medium and gel, C0 nmol/μl). […] After 24 hours, total culture medium was harvested for measurement of final lactate concentrations (C nmol/μl) and total volumes (V μl) of the conditioned-media, and the cells in gel were fixed with PFA as above. Concentration of lactate in each sample was measured using a lactate assay kit (BioVision). Net lactate production within 24 hours (N) was calculated as follows: N=C×(V+200)−C0×200. Fixed cells were stained with DRAQ5, to measure total level of DNA as a surrogate for number of cells, and the staining was measured as above.
as §3

In experiment [5] the test system is T4-2 cells. The experiment is described as follows: Mitochondrial activity (MitoTracker oxidation) assay in 3D lrECM. It counts as cell-based, human. The method, then: as §2
For mitochondrial activity, we slightly modified the method described previously (Morici et al., 2007). Briefly, cells were incubated with 2 μM MitoTracker® Orange CM-H2 TMRos (Invitrogen) for 1 hour and fixed with PFA as above. Cells were counterstained with Hoechst 33342 (Invitrogen), which is known also to bind to DNA stoichiometrically, then MitoTracker and Hoechst staining were measured by taking z-section images from top to bottom of the gels using confocal microscopy.
as §3

In experiment [6] the test system is HCC70 cells. In words: 3D lrECM culture of HCC70 cells. It is filed as cell-based, human. Conditions: IA 2 μM, DON 20 μM.
For experiment [7], the system named is MDA-MB-231 cells. In words: 3D lrECM culture of MDA-MB-231 cells. It is filed as cell-based, human. As to conditions: IA 40 μM, DON 20 μM.
Experiment [8] concerns MDA-MB-231 cells. In words: In vitro invasive activity (Matrigel invasion chamber). Conditions: IA 40 μM, DON 20 μM, 17.5 mM glucose, 16 hours. It is filed as cell-based, human. The procedure:
Invasive activity was examined using BD Biocoat GFR (growth factor reduced) Matrigel invasion chamber (BD Biosciences). Before the assay, lower surface of the membrane of the upper chamber was coated with collagen type I (10 μg/ml). MDA-MB-231 cells cultured on 2D plastic for two days with H14 medium containing different concentrations of glucose (17.5, 1.75 or 0 mM) or supplemented with metabolic inhibitors (40 μM IA or 20 μM DON, with 17.5 mM glucose) were detached by trypsinization, and 25,000 cells in each condition were seeded on the upper chambers. Both upper and lower chambers were filled with medium of the same formulations as that in each 2D culture. After 16 hours, cells were fixed with 4% PFA in PBS and stained with crystal violet.

Experiment [9] concerns signaling intermediates in MDA-MB-231 cells. In words: Western blots of signaling intermediates in MDA-MB-231 cells. It is filed as cell-based, human. As to conditions: IA 40 μM, DON 20 μM. The method, then:
as §1

For experiment [10], the system named is Rap1. In words: Measurement of Rap1 activity (GST-RalGDS-RBD pull-down) in T4-2 cells. It counts as cell-based, human. Conditions: T4-2 cells, 3D lrECM, IA 20 μM. The method, then: Rap1 activity was measured as described previously (Itoh et al., 2007). Briefly, cell colonies were extracted from lrECM as described above, and lysed in lysis buffer (50 mM Tris-HCl [pH 7.4], 500 mM NaCl, 1% NP40, 2.5 mM MgCl2, 10% glycerol, 10 μg/ml aprotinin and 10 μg/ml leupeptin) at 4° C. for 30 min. Lysates were cleared by centrifugation at 15,000×g at 4° C. for 15 min. Supernatants (containing 300 μg protein in 300 μl) were incubated with 15 μg of GST-tagged RalGDS-RBD fusion protein immobilized on Glutathione Sepharose 4B beads (GE Healthcare), at 4° C. for 1 hr. Beads were washed trice in lysis buffer and resuspended in Laemmli buffer. Samples were separated by SDS-PAGE, followed by transfer to polyvinylidene fluoride membranes (0.2 μm pore) and immunoblotting using anti-Rap1 antibody.

[11] abbreviates: same inhibitor concentrations as E1.

With `[N-]=[N+]=CC(=O)CC[C@H](N)C(=O)O` [DON, 6-diazo-5-oxonorleucine], in [1], the “phenotypic reversion of the malignant phenotype” value was “do induce phenotypic reversion; also recorded: induced the repertoire of the reversion phenotype”. Moreover, in experiment [1] (setting [11]), the “basal polarity / organized acinar structures” value is on record as “re-establishment of tissue polarity” and the “growth / proliferation (cell numbers at the colony mid-section, EdU incorporation)” value is “growth arrest”. For the same compound, the “levels and/or activities of EGFR, β1 integrin, Akt and MEK (oncogenic signaling)” value in experiment [2] (Western blot) is given as “suppression of activation of oncogenic signaling”. Moreover, the “EGFR expression and activity” value in [2] (Azs 20 μM, DON 20 μM) is “significantly down-regulated”. In addition, in experiment [3], the glucose uptake entry is “significantly down-regulated”. Also, the lactate production result in experiment [4] is on record as “significantly down-regulated”. The “mitochondrial activity (oxidation)” value in experiment [5] was “remained unaltered”. Further, the reversion phenotype entry in experiment [6] is listed as “reversion phenotype was similar to that in T4-2 cells”. In experiment [7], the altered phenotype entry is listed as “incomplete but still significant” and the “proliferation (total cell numbers)” value was “appreciable decrease”. The invasive property entry in experiment [8] is “appreciable decrease”. In addition, the other signaling activities entry in experiment [9] is on record as “appreciable decrease”.

In the case of `O=C(O)CI` [IA, Iodoacetate], in experiment [1], the “phenotypic reversion of the malignant phenotype” value is “do induce phenotypic reversion”. In [2] (basal medium 17.5 mM glucose, IA 20 μM, OX 50 mM), the “EGFR and MEK” value is “not affected appreciably”. Besides, the Rap1 activity result in experiment [10] is “down-regulation of Rap1 activity without a change in its total protein level”. For the same compound, the reversion phenotype entry in experiment [6] is recorded as “reversion phenotype was similar to that in T4-2 cells”. For the same compound, in experiment [7], the altered phenotype result was “incomplete but still significant” and the “proliferation (total cell numbers)” value is listed as “appreciable decrease”. For the same compound, the invasive property result in experiment [8] is “appreciable decrease”. Also, the other signaling activities entry in experiment [9] is recorded as “appreciable decrease”.
